Source: ChEMBL document CHEMBL1201862, “PubChem BioAssay data set” (2004)
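A five-concentration, 48-hour dose response in 96-well plates underlies each endpoint, interpolated linearly between surrounding concentrations. GI50 marks 50% less growth.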 Active and inactive are the calls of the source. Rule as the data show it: active = GI50 up to about 1.1 µM and inactive = higher.

Experiments:
Assay in all cases: inhibition of tumour cell growth, NCI panel, 48 h
Malme-3M = tested on: Malme-3M
OVCAR-4 = tested on: OVCAR-4
UO-31 = tested on: UO-31
SF-268 = tested on: SF-268
UACC-62 = tested on: UACC-62
EKVX = tested on: EKVX
SN12C = tested on: SN12C
T47D = tested on: T47D
OVCAR-8 = tested on: OVCAR-8
COLO 205 = tested on: COLO 205
Hs-578T = tested on: Hs-578T
NCI-H23 = tested on: NCI-H23
BT-549 = tested on: BT-549
IGROV-1 = tested on: IGROV-1
RXF 393 = tested on: RXF 393
ACHN = tested on: ACHN
KM12 = tested on: KM12
PC-3 = tested on: PC-3
786-0 = tested on: 786-0

Measured: GI50

O=c1[nH]c2ccc(CC(=S)N3CCN(c4ccccc4)CC3)cc2o1
inactive: Malme-3M 4.78 µM | OVCAR-4 > 100 µM | UO-31 > 100 µM | SF-268 > 76.4 µM | UACC-62 > 66.4 µM | EKVX 37.9 µM | SN12C > 100 µM | T47D > 100 µM | OVCAR-8 > 79.1 µM | COLO 205 97.7 µM | Hs-578T > 54.2 µM | NCI-H23 > 100 µM | BT-549 > 100 µM | IGROV-1 > 90.8 µM | RXF 393 > 100 µM | ACHN > 100 µM | KM12 63.4 µM | PC-3 > 100 µM | 786-0 > 90.2 µM

CC(C)(C)c1ccc(-c2nc3ccc([N+](=O)[O-])cc3c(=O)o2)cc1
inactive: Malme-3M 28.9 µM | OVCAR-4 17.6 µM | UO-31 32.9 µM | SF-268 35.7 µM | UACC-62 24.5 µM | EKVX 25.4 µM | SN12C 40.1 µM | T47D 40.5 µM | OVCAR-8 20.9 µM | COLO 205 24.4 µM | Hs-578T 25.2 µM | NCI-H23 28.7 µM | BT-549 24.1 µM | IGROV-1 44.2 µM | RXF 393 42.6 µM | ACHN 21.9 µM | KM12 20 µM | PC-3 21.2 µM | 786-0 26.8 µM

CCOC(=O)c1nc2ccc(C(F)(F)F)cc2nc1Oc1ccc(OC)cc1
inactive: Malme-3M 62.8 µM | OVCAR-4 > 100 µM | UO-31 > 100 µM | SF-268 > 100 µM | UACC-62 > 100 µM | EKVX 55.2 µM | SN12C > 100 µM | T47D > 100 µM | OVCAR-8 > 100 µM | COLO 205 > 100 µM | Hs-578T > 100 µM | BT-549 > 100 µM | IGROV-1 > 100 µM | RXF 393 > 100 µM | ACHN > 100 µM | KM12 > 100 µM | PC-3 > 100 µM | 786-0 > 100 µM

CCOC(=O)/C(C#N)=C(/NS(=O)(=O)c1cc(C)c(Cl)cc1[S-])[n+]1ccc(N(C)C)cc1
inactive: Malme-3M > 100 µM | OVCAR-4 > 100 µM | UO-31 > 100 µM | SF-268 > 100 µM | UACC-62 > 100 µM | EKVX > 100 µM | SN12C > 100 µM | T47D > 100 µM | OVCAR-8 > 100 µM | COLO 205 > 100 µM | Hs-578T > 100 µM | NCI-H23 > 100 µM | BT-549 > 100 µM | IGROV-1 > 100 µM | RXF 393 > 100 µM | ACHN > 100 µM | KM12 > 100 µM | PC-3 > 100 µM | 786-0 > 100 µM

O=S(=O)(/N=C(\NO)Nc1ccc(Cl)cc1)C1CC=C(c2ccon2)S1 (stereo unspecified)
inactive: Malme-3M 1.55 µM | OVCAR-4 3.52 µM | UO-31 9.55 µM | SF-268 14.7 µM | UACC-62 24.5 µM | EKVX 31 µM | SN12C 18.2 µM | T47D 12.5 µM | OVCAR-8 8.77 µM | COLO 205 15.7 µM | Hs-578T 14.7 µM | NCI-H23 13.2 µM | BT-549 12.3 µM | IGROV-1 11.6 µM | RXF 393 6.31 µM | ACHN 13 µM | KM12 46.5 µM | PC-3 14.8 µM | 786-0 2.88 µM

CCOC(=O)c1nc2cc(C(F)(F)F)ccc2nc1Nc1ccc(C(=O)OC)s1
inactive: Malme-3M 38.5 µM | OVCAR-4 31 µM | UO-31 33.3 µM | SF-268 44.9 µM | UACC-62 23.2 µM | EKVX 45.9 µM | T47D 25.7 µM | OVCAR-8 41.2 µM | COLO 205 20.7 µM | Hs-578T 29.8 µM | NCI-H23 30 µM | BT-549 25.7 µM | IGROV-1 40.9 µM | RXF 393 16.8 µM | ACHN 37.8 µM | KM12 38.7 µM | PC-3 30.7 µM | 786-0 29.6 µM

Nc1ncnc2c1ccn2CC=C(CO)CO
inactive: Malme-3M > 100 µM | OVCAR-4 > 100 µM | UO-31 > 100 µM | SF-268 > 100 µM | UACC-62 > 100 µM | EKVX > 100 µM | SN12C > 100 µM | T47D > 100 µM | OVCAR-8 > 100 µM | Hs-578T > 100 µM | NCI-H23 > 100 µM | BT-549 > 100 µM | IGROV-1 > 100 µM | RXF 393 > 100 µM | ACHN > 100 µM | KM12 > 100 µM | PC-3 > 100 µM | 786-0 > 100 µM

Cc1ccc(S(=O)(=O)N/C(=N\O)Nc2ccc(Cl)c(Cl)c2)cc1
inactive: Malme-3M 2.07 µM | OVCAR-4 6.46 µM | UO-31 5.02 µM | SF-268 6.01 µM | UACC-62 11.7 µM | EKVX 5.92 µM | SN12C 2.12 µM | T47D 11.4 µM | OVCAR-8 8.04 µM | COLO 205 17.1 µM | Hs-578T 3.73 µM | NCI-H23 15.7 µM | BT-549 9.64 µM | IGROV-1 13.9 µM | RXF 393 9.84 µM | ACHN 11.9 µM | KM12 11.2 µM | PC-3 5.48 µM | 786-0 4.6 µM

C(/Cc1ccc2c(c1)OCO2)=N\N=C1NCCCN1
inactive: Malme-3M 64.4 µM | OVCAR-4 98.9 µM | UO-31 38.2 µM | SF-268 93.8 µM | UACC-62 > 100 µM | EKVX 48.9 µM | SN12C 54.3 µM | T47D 19.5 µM | OVCAR-8 > 100 µM | COLO 205 57 µM | Hs-578T > 100 µM | NCI-H23 > 100 µM | BT-549 64.7 µM | IGROV-1 68.2 µM | RXF 393 42.9 µM | ACHN 28 µM | KM12 > 100 µM | PC-3 36.3 µM | 786-0 78.2 µM

O=C(CC1C=Cc2ccccc2N1C(=O)c1ccccc1)c1ccccc1 (stereo unspecified)
inactive: Malme-3M 21.7 µM | OVCAR-4 34.8 µM | UO-31 20.4 µM | SF-268 27.1 µM | UACC-62 11.7 µM | EKVX 12.6 µM | SN12C 27 µM | T47D 44.2 µM | OVCAR-8 29.2 µM | COLO 205 19.5 µM | Hs-578T 25.1 µM | NCI-H23 23 µM | BT-549 23.8 µM | IGROV-1 19.1 µM | RXF 393 47.2 µM | ACHN 35.6 µM | KM12 19.3 µM | PC-3 26.5 µM | 786-0 29.3 µM

CC(C)(N)C(=O)N[C@@H]1C(=O)N2[C@@H]1SC(C)(C)[C@@H]2C(=O)O
inactive: Malme-3M > 100 µM | OVCAR-4 > 100 µM | UO-31 > 100 µM | SF-268 > 100 µM | UACC-62 > 100 µM | EKVX > 100 µM | SN12C > 100 µM | T47D > 100 µM | OVCAR-8 > 100 µM | COLO 205 > 100 µM | Hs-578T > 100 µM | NCI-H23 > 100 µM | BT-549 > 100 µM | IGROV-1 > 100 µM | RXF 393 > 100 µM | ACHN > 100 µM | KM12 > 100 µM | PC-3 > 100 µM | 786-0 > 100 µM

COc1ccc(N2C(=O)C(=O)C3(CCCCC3)C2=O)c(OC)c1OC
inactive: Malme-3M > 100 µM | OVCAR-4 > 100 µM | UO-31 > 100 µM | SF-268 > 100 µM | UACC-62 > 100 µM | EKVX > 100 µM | SN12C > 100 µM | T47D > 100 µM | OVCAR-8 > 100 µM | COLO 205 > 100 µM | Hs-578T > 100 µM | NCI-H23 > 100 µM | BT-549 34 µM | RXF 393 > 100 µM | ACHN > 100 µM | KM12 > 100 µM | PC-3 > 100 µM | 786-0 > 100 µM

ClC(Cl)(Cl)C1CCOC1n1nc2ccccc2n1 (stereo unspecified)
inactive: Malme-3M > 100 µM | OVCAR-4 > 100 µM | SF-268 > 100 µM | UACC-62 > 100 µM | EKVX > 100 µM | SN12C > 100 µM | T47D > 100 µM | OVCAR-8 > 100 µM | COLO 205 > 100 µM | Hs-578T > 100 µM | NCI-H23 > 100 µM | BT-549 > 100 µM | IGROV-1 > 100 µM | RXF 393 > 100 µM | PC-3 > 100 µM | 786-0 > 100 µM

CCOC(=O)c1nc2ccc(C(F)(F)F)cc2nc1NCc1ccc(OC)c(OC)c1
inactive: Malme-3M 97.7 µM | OVCAR-4 73.5 µM | UO-31 60.7 µM | SF-268 83.9 µM | UACC-62 73.6 µM | EKVX 44.8 µM | T47D 48.1 µM | OVCAR-8 80.4 µM | COLO 205 35.8 µM | Hs-578T 42.8 µM | NCI-H23 72.8 µM | BT-549 51.3 µM | IGROV-1 71.1 µM | RXF 393 43.6 µM | ACHN 53.1 µM | KM12 55.5 µM | PC-3 35.5 µM | 786-0 > 100 µM

C=C(C)C(=O)O[C@@H]1C[C@@]2(C)O[C@@H]2C[C@H](O)/C(C)=C/[C@H]2OC(=O)C(=C)[C@@H]21
inactive: Malme-3M 24.5 µM | OVCAR-4 19.9 µM | SF-268 > 100 µM | UACC-62 74.5 µM | EKVX 62.2 µM | SN12C 36.6 µM | T47D 50.7 µM | OVCAR-8 40.6 µM | COLO 205 42 µM | Hs-578T > 100 µM | NCI-H23 > 100 µM | BT-549 63.1 µM | IGROV-1 > 100 µM | RXF 393 33.3 µM | ACHN 47.2 µM | KM12 > 100 µM | PC-3 > 100 µM | 786-0 38.9 µM
